Laboratory results published in US8426408B2, “Pyrimidine inhibitors of kinases” (AbbVie Inc., priority 2009, dated 2013).

Legend:
Aurora A = target: T1, Aurora A (Homo sapiens, UniProt O14965); assay: Aurora A enzyme inhibition (time-resolved fluorescence, STK substrate-2); format: biochemical; settings: 1 mM ATP
T1 sequence (O14965 1-403): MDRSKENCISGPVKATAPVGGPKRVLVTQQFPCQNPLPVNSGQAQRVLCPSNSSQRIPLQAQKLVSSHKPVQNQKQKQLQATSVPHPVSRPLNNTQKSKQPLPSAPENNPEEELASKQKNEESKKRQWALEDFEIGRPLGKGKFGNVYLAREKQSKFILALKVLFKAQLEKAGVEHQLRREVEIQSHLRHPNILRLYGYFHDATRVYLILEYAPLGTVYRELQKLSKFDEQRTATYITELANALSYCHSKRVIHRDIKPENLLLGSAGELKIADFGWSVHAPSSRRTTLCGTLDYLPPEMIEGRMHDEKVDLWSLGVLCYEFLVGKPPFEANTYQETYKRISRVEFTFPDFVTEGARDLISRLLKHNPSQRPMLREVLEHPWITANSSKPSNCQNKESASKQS
Outline: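 Active enzyme incubated 1 h with biotinylated STK substrate-2, 1 mM ATP and inhibitor in Hepes pH 7.4 with MgCl2, orthovanadate and Triton X-100. EDTA stop; phosphopeptide detected by Eu-cryptate anti-phospho-STK/SA-XL665 TR-FRET (665/615 nm ratio); IC50 by exponential fit.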

NCI-H1299 cells = assay: Induction of polyploidy in H1299; format: cell-based, Human; settings: NCI-H1299, 48 hours; for EC15: Homo sapiens, read-out: EC15 (concentration of inhibitor necessary to induce polyploidy in 15% of cells)
Outline: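 NCI-H1299 cells in RPMI 1640/10% FCS were treated with inhibitor concentrations in duplicate for 48 h at 37 C, then formalin-fixed and Hoechst-stained. Nuclear area was measured by high-content imaging, with polyploid (≥4N) defined as >750 μ^2. EC15 was derived by least-squares fit of log dose-response.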

Row | Compound | Ki (Aurora A) [nM] | EC15 (NCI-H1299 cells) [nM] | EC15 (concentration of inhibitor necessary to induce polyploidy in 15% of cells) (NCI-H1299 cells)
1 | Cn1cc(Nc2ncc(C(F)(F)F)c(Nc3ccccc3C3(O)CCC3)n2)cn1 [Example 115, 1-[2-({2-[(1-methyl-1H-pyrazol-4-yl)amino]-5-(trifluoromethyl)pyrimidin-4-yl}amino)phenyl]cyclobutanol] | < 100 | < 100 | –
2 | COc1cccc(Cn2cc(Nc3ncc(Cl)c(N[C@H]4[C@@H](C(N)=O)[C@@H]5C=C[C@H]4C5)n3)cn2)c1 [Example 155, (1S,2S,3R,4R)-3-[(5-chloro-2-{[1-(3-methoxybenzyl)-1H-pyrazol-4-yl]amino}pyrimidin-4-yl)amino]bicyclo[2.2.1]hept-5-ene-2-carboxamide] | < 100 | < 100 | –
3 | NC(=O)[C@@H]1[C@H](Nc2nc(Nc3cnn(CC4CCO4)c3)ncc2Cl)[C@H]2C=C[C@@H]1C2 (stereo partly drawn) [Example 129, (1S,2S,3R,4R)-3-[(5-chloro-2-{[1-(oxetan-2-ylmethyl)-1H-pyrazol-4-yl]amino}pyrimidin-4-yl)amino]bicyclo[2.2.1]hept-5-ene-2-carboxamide] | < 100 | < 100 | –
4 | CC(O)Cn1cc(Nc2ncc(C(F)(F)F)c(NC3C4CCC(C4)C3C(N)=O)n2)cn1 (mixture of isomers) [Example 21, (1S,2R,3S,4R)-3-{[2-({1-[(2R)-2-hydroxypropyl]-1H-pyrazol-4-yl}amino)-5-(trifluoromethyl)pyrimidin-4-yl]amino}bicyclo[2.2.1]heptane-2-carboxamide and (1R,2S,3R,4S)-3-{[2-({1-[(2R)-2-hydroxypropyl]-1H-pyrazol-4-yl}amino)-5-(trifluoromethyl)pyrimidin-4-yl]amino}bicyclo[2.2.1]heptane-2-carboxamide] | < 100 | – | A (“A” represents an EC15 of less than 0.1 μM)
5 | (1S,2R)-2-{[5-chloro-2-({1-[2-(morpholin-4-yl)ethyl]-1H-pyrazol-4-yl}amino)pyrimidin-4-yl]amino}cyclopentanecarboxamide and (1R,2S)-2-{[5-chloro-2-({1-[2-(morpholin-4-yl)ethyl]-1H-pyrazol-4-yl}amino)pyrimidin-4-yl]amino}cyclopentanecarboxamide [Example 137] | < 100 | – | B (“B” represents an EC15 of between 0.1 μM and 1 μM)
6 | NC(=O)[C@@H]1[C@H](Nc2nc(Nc3cnn(C[C@H](O)CO)c3)ncc2Cl)[C@H]2C=C[C@@H]1C2 [Example 124, (1S,2S,3R,4R)-3-{[5-chloro-2-({1-[(2S)-2,3-dihydroxypropyl]-1H-pyrazol-4-yl}amino)pyrimidin-4-yl]amino}bicyclo[2.2.1]hept-5-ene-2-carboxamide] | < 100 | < 100 | –
7 | NC(=O)[C@@H]1[C@H](Nc2nc(Nc3cnn(Cc4ccccc4)c3)ncc2Br)[C@H]2C=C[C@@H]1C2 [Example 149, (1S,2S,3R,4R)-3-({2-[(1-benzyl-1H-pyrazol-4-yl)amino]-5-bromopyrimidin-4-yl}amino)bicyclo[2.2.1]hept-5-ene-2-carboxamide] | < 100 | < 100 | –
8 | Cn1cc(Nc2ncc(Cl)c(N[C@@H]3[C@H](C(N)=O)[C@H]4CC[C@@H]3O4)n2)cn1.Cn1cc(Nc2ncc(Cl)c(N[C@H]3[C@@H](C(N)=O)[C@@H]4CC[C@H]3O4)n2)cn1 (mixture of isomers) [Example 141, (1S,2R,3S,4R)-3-({5-chloro-2-[(1-methyl-1H-pyrazol-4-yl)amino]pyrimidin-4-yl}amino)-7-oxabicyclo[2.2.1]heptane-2-carboxamide and (1R,2S,3R,4S)-3-({5-chloro-2-[(1-methyl-1H-pyrazol-4-yl)amino]pyrimidin-4-yl}amino)-7-oxabicyclo[2.2.1]heptane-2-carboxamide] | < 100 | – | B (“B” represents an EC15 of between 0.1 μM and 1 μM)
9 | NC(=O)[C@@H]1[C@H](Nc2nc(Nc3cnn(Cc4ccc(Cl)cc4)c3)ncc2Br)[C@H]2C=C[C@@H]1C2 [Example 172, (1S,2S,3R,4R)-3-[(5-bromo-2-{[1-(4-chlorobenzyl)-1H-pyrazol-4-yl]amino}pyrimidin-4-yl)amino]bicyclo[2.2.1]hept-5-ene-2-carboxamide] | < 100 | < 100 | –
10 | Cn1cc(Nc2ncc(C(F)(F)F)c(N[C@H]3[C@@H](C(N)=O)C[C@H]4C[C@@H]3C4(C)C)n2)cn1 [Example 167, (1R,2R,3S,5R)-6,6-dimethyl-2-({2-[(1-methyl-1H-pyrazol-4-yl)amino]-5-(trifluoromethyl)pyrimidin-4-yl}amino)bicyclo[3.1.1]heptane-3-carboxamide] | < 100 | < 100 | –
11 | NC(=O)[C@@H]1[C@H](Nc2nc(Nc3cnn(-c4ccccc4)c3)ncc2Br)[C@H]2C=C[C@@H]1C2 [Example 173, (1S,2S,3R,4R)-3-({5-bromo-2-[(1-phenyl-1H-pyrazol-4-yl)amino]pyrimidin-4-yl}amino)bicyclo[2.2.1]hept-5-ene-2-carboxamide] | < 100 | < 100 | –
12 | NC(=O)[C@@H]1[C@H](Nc2nc(Nc3cnn(C[C@@H](O)CO)c3)ncc2Cl)[C@H]2C=C[C@@H]1C2 [Example 130, (1S,2S,3R,4R)-3-{[5-chloro-2-({1-[(2R)-2,3-dihydroxypropyl]-1H-pyrazol-4-yl}amino)pyrimidin-4-yl]amino}bicyclo[2.2.1]hept-5-ene-2-carboxamide] | < 100 | < 100 | –
13 | CNC(=O)Cn1cc(Nc2ncc(Cl)c(N[C@@H]3[C@H]4CC[C@H](C4)[C@@H]3C(N)=O)n2)cn1 [Example 88, (1R,2S,3R,4S)-3-{[5-chloro-2-({1-[2-(methylamino)-2-oxoethyl]-1H-pyrazol-4-yl}amino)pyrimidin-4-yl]amino}bicyclo[2.2.1]heptane-2-carboxamide] | < 100 | 100 to 1000 | –
14 | CCn1cc(Nc2ncc(Cl)c(N[C@H]3[C@@H](C(N)=O)[C@@H]4C=C[C@H]3C4)n2)cn1 (racemic) [Example 30, (1S,2S,3R,4R)-3-({5-chloro-2-[(1-ethyl-1H-pyrazol-4-yl)amino]pyrimidin-4-yl}amino)bicyclo[2.2.1]hept-5-ene-2-carboxamide and (1R,2R,3S,4S)-3-({5-chloro-2-[(1-ethyl-1H-pyrazol-4-yl)amino]pyrimidin-4-yl}amino)bicyclo[2.2.1]hept-5-ene-2-carboxamide] | < 100 | – | A (“A” represents an EC15 of less than 0.1 μM)
15 | COc1cccc(CCn2cc(Nc3ncc(Br)c(N[C@H]4[C@@H](C(N)=O)[C@@H]5C=C[C@H]4C5)n3)cn2)c1 [Example 160, (1S,2S,3R,4R)-3-{[5-bromo-2-({1-[2-(3-methoxyphenyl)ethyl]-1H-pyrazol-4-yl}amino)pyrimidin-4-yl]amino}bicyclo[2.2.1]hept-5-ene-2-carboxamide] | < 100 | < 100 | –
16 | Cn1cc(Nc2ncc(C(F)(F)F)c(Nc3ccccc3C3(O)CNC3)n2)cn1 [Example 109, 3-[2-({2-[(1-methyl-1H-pyrazol-4-yl)amino]-5-(trifluoromethyl)pyrimidin-4-yl}amino)phenyl]azetidin-3-ol] | < 100 | < 100 | –
17 | CC(C)CCn1cc(Nc2ncc(Br)c(N[C@H]3[C@@H](C(N)=O)[C@@H]4C=C[C@H]3C4)n2)cn1 [Example 111, (1S,2S,3R,4R)-3-[(5-bromo-2-{[1-(3-methylbutyl)-1H-pyrazol-4-yl]amino}pyrimidin-4-yl)amino]bicyclo[2.2.1]hept-5-ene-2-carboxamide] | < 100 | < 100 | –
